≈ marks a conversion by molar mass, not a printed value. Counter-ions that a name gives are not always drawn. Like-named read-outs stand apart in the source and are kept apart here.
How the values were obtained:
Ps. cepacia 23 = test: in vitro antibacterial activity, agar plate dilution method (MIC); type: cell-based, Pseudomonas cepacia; conditions: read-out: Minimum Inhibitory Concentration (MIC)
Procedure, shortened: (§1)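 Plate dilution on Mueller Hinton agar with various antibiotic concentrations. Inoculum size was 10^6 CFU/ml, incubation 16 hours at 37° C.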

Ps. aeruginosa AK 109 = test: as above; type: cell-based, Pseudomonas aeruginosa; conditions: Pseudomonas aeruginosa, AK109, 16 h
Procedure, shortened: as §1

Ps. aeruginosa AKR17 = test: as above; type: cell-based, Pseudomonas aeruginosa; conditions: Pseudomonas aeruginosa, read-out: Minimum Inhibitory Concentration (MIC)
Procedure, shortened: as §1

Ps. aeruginosa IF03445 = test: as above; type: cell-based, Pseudomonas aeruginosa; conditions: Pseudomonas aeruginosa, IF03445, 16 h, read-out: Minimum Inhibitory Concentration (MIC), Ps. aeruginosa IF03445; 10^6 CFU/ml
Procedure, shortened: as §1

A. calcoaceticus No. 4 = test: as above; type: cell-based, Acinetobacter calcoaceticus; conditions: Acinetobacter calcoaceticus, NO.4, 16 h, 10^6 CFU/ml
Procedure, shortened: as §1

E. coli CSH2 (RK1) = test: microbe, parasite or virus in culture; type: cell-based; conditions: Escherichia coli, 16 h, read-out: Minimum Inhibitory Concentration (MIC), *E. coli CSH2 (RK1), lactamase-producing strain; 10^6 CFU/ml
Procedure, shortened: as §1

E. coli CSH(RE45) = test: microbe, parasite or virus in culture; type: cell-based; conditions: Escherichia coli, 16 h, read-out: Minimum Inhibitory Concentration (MIC), *E. coli CSH(RE45), lactamase-producing strain; 10^6 CFU/ml
Procedure, shortened: as §1

P. vulgaris No. 33 = test: in vitro antibacterial activity, agar plate dilution method (MIC); type: cell-based; conditions: Proteus vulgaris, NO.33, 16 h, read-out: Minimum Inhibitory Concentration (MIC), *P. vulgaris No. 33, lactamase-producing strain; 10^6 CFU/ml
Procedure, shortened: as §1

E. cloacae 963 = test: as above; type: cell-based; conditions: 10^6 CFU/ml
Procedure, shortened: as §1

K. oxytoca GN10650 = test: as above; type: cell-based; conditions: Klebsiella oxytoca, 10^6 CFU/ml
Procedure, shortened: as §1

E. cloacae Nek 39 = test: as above; type: cell-based; conditions: Enterobacter cloacae, NEK39, 16 h, read-out: Minimum Inhibitory Concentration (MIC), *E. cloacae Nek 39, lactamase-producing strain; 10^6 CFU/ml
Procedure, shortened: as §1

E. coli NIHJ JC2 = test: as above; type: cell-based; conditions: Escherichia coli, NIHJJC2, 16 h, read-out: Minimum Inhibitory Concentration (MIC), E. coli NIHJ JC2, 10^6 CFU/ml, 37° C.
Procedure, shortened: as §1

S. marcescens IAM 1184 = test: as above; type: cell-based; conditions: Serratia marcescens, IAM1184, 16 h, read-out: Minimum Inhibitory Concentration (MIC)
Procedure, shortened: as §1

S. aureus 209P NIHJ-JC1 = test: as above; type: cell-based; conditions: Staphylococcus aureus, 16 h
Procedure, shortened: as §1

M. morganii GN5407 = test: as above; type: cell-based; conditions: Morganella morganii, GN5407, 16 h, read-out: Minimum Inhibitory Concentration (MIC), *M. morganii GN5407, lactamase-producing strain; 10^6 CFU/ml
Procedure, shortened: as §1

K. pneumoniae No. 42 = test: as above; type: cell-based; conditions: Klebsiella pneumoniae, 10^6 CFU/ml
Procedure, shortened: as §1

E. coli GN5482 = test: as above; type: cell-based; conditions: Escherichia coli, GN5482, 16 h
Procedure, shortened: as §1

P. vulgaris HX-19 = test: as above; type: cell-based; conditions: Proteus vulgaris, HX19, 16 h, read-out: Minimum Inhibitory Concentration (MIC)
Procedure, shortened: as §1

K. pneumoniae PCI-602 = test: as above; type: cell-based; conditions: Klebsiella pneumoniae, PCI602, 16 h, read-out: Minimum Inhibitory Concentration (MIC), K. pneumoniae PCI-602; 10^6 CFU/ml
Procedure, shortened: as §1

S. marcescens No. 16-2 = test: as above; type: cell-based; conditions: Serratia marcescens, NO.162, 16 h
Procedure, shortened: as §1

[1] = Burkholderia cepacia, 16 h, Ps. cepacia 23, 10^6 CFU/ml
[2] = read-out: Minimum Inhibitory Concentration (MIC), Ps. aeruginosa AK 109, 10^6 CFU/ml
[3] = 16 h, Ps. aeruginosa AKR17, 10^6 CFU/ml
[4] = A. calcoaceticus No. 4, read-out: Minimum Inhibitory Concentration (MIC)
[5] = Enterobacter cloacae, 963, 16 h, read-out: Minimum Inhibitory Concentration (MIC), E. cloacae 963
[6] = S. marcescens IAM 1184, 10^6 CFU/ml
[7] = read-out: Minimum Inhibitory Concentration (MIC), S. aureus 209P NIHJ-JC1, 10^6 CFU/ml, 37° C., 16 hours
[8] = NO.42, 16 h, read-out: Minimum Inhibitory Concentration (MIC), *K. pneumoniae No. 42, lactamase-producing strain
[9] = read-out: Minimum Inhibitory Concentration (MIC), *E. coli GN5482, lactamase-producing strain, 10^6 CFU/ml
[10] = read-out: Minimum Inhibitory Concentration (MIC), *S. marcescens No. 16-2, lactamase-producing strain, 10^6 CFU/ml
[11] = read-out: Minimum Inhibitory Concentration (MIC), A. calcoaceticus No. 4
[12] = GN10650, 16 h, read-out: Minimum Inhibitory Concentration (MIC), *K. oxytoca GN10650, lactamase-producing strain
[13] = read-out: Minimum Inhibitory Concentration (MIC)
[14] = Enterobacter cloacae, 16 h, E. cloacae 963, read-out: Minimum Inhibitory Concentration (MIC)

Row | Structure (SMILES) | MIC (Ps. cepacia 23; [1]) [µg/mL] | MIC (Ps. aeruginosa AK 109; [2]) [µg/mL] | MIC (Ps. aeruginosa AKR17; [3]) [µg/mL] | MIC (Ps. aeruginosa IF03445) [µg/mL] | MIC (A. calcoaceticus No. 4; [4]) [µg/mL] | MIC (E. coli CSH2 (RK1)) [µg/mL] | MIC (E. coli CSH(RE45)) [µg/mL] | MIC (P. vulgaris No. 33) [µg/mL] | MIC (E. cloacae 963; [5]) [µg/mL] | MIC (E. cloacae Nek 39) [µg/mL] | MIC (E. coli NIHJ JC2) [µg/mL] | MIC (S. marcescens IAM 1184; [6]) [µg/mL] | MIC (S. aureus 209P NIHJ-JC1; [7]) [µg/mL] | MIC (M. morganii GN5407) [µg/mL] | MIC (K. pneumoniae No. 42; [8]) [µg/mL] | MIC (E. coli GN5482; [9]) [µg/mL] | MIC (P. vulgaris HX-19; P. vulgaris HX-19, 10^6 CFU/ml) [µg/mL] | MIC (K. pneumoniae PCI-602) [µg/mL] | MIC (S. marcescens No. 16-2; [10]) [µg/mL] | MIC (K. oxytoca GN10650; [12]) [µg/mL] | other results
1 | Nc1nc(/C(=N/Oc2ccccc2)C(=O)N[C@@H]2C(=O)N3C(C(=O)O)=C(CSc4nnc(-c5ccc(O)c(O)c5)o4)CS[C@H]23)cs1 [Ex. 22, sodium 7β-[2-(2-aminothiazol-4-yl)2phenoxyiminoacetamido]-3-[5-(3,4-dihydroxyphenyl)-1,3,4-oxadiazol-2-yl]thiomethyl-3-cephem-4-carboxylate] | 0.025 | 1.56 | > 100 | 1.56 | 0.2 | 0.0125 | < 0.006 | 0.025 | 0.025 | 0.05 | 0.39 | 0.05 | 0.78 | 0.0125 | 0.0125 | 0.78 | < 0.006 | < 0.006 | 0.78 |  | MIC (K. oxytoca GN10650; 16 h, *K. oxytoca GN10650, lactamase-producing strain, read-out: Minimum Inhibitory Concentration (MIC)): 100 µg/mL
2 | C#CCO/N=C(\C(=O)N[C@@H]1C(=O)N2C(C(=O)O)=C(CSc3nnc(-c4ccc(O)c(O)c4)s3)CS[C@H]12)c1csc(N)n1 [Ex. 31, sodium 7β-[2-(2-aminothiazol-4-yl)-2-proparqyloxyiminoacetamido]-3-[5-(3,4-dihvdroxyphenyl)-1,3,4-thiadiazol-2-yl]thiomethyl-3-cephem-4-carboxylate] |  |  | 100 | 0.78 |  | < 0.006 | 0.0125 | 0.025 | 0.0125 | 0.2 | 0.1 |  | 0.78 | 0.0125 |  |  | < 0.006 | < 0.006 |  | 0.78 | MIC (Ps. cepacia 23; Burkholderia cepacia, 23, 16 h): 0.0125 µg/mL; MIC (Ps. aeruginosa AK 109; Ps. aeruginosa AK 109, 10^6 CFU/ml, read-out: Minimum Inhibitory Concentration (MIC)): 0.2 µg/mL; MIC (A. calcoaceticus No. 4; [11]): 0.1 µg/mL; MIC (S. marcescens IAM 1184): 0.0125 µg/mL; MIC (K. pneumoniae No. 42; 16 h, *K. pneumoniae No. 42, lactamase-producing strain, read-out: Minimum Inhibitory Concentration (MIC)): < 0.006 µg/mL; MIC (E. coli GN5482; [13]): 0.39 µg/mL; MIC (S. marcescens No. 16-2; [13]): 0.39 µg/mL
3 | Nc1nc(/C(=N/OCc2ccccc2)C(=O)N[C@@H]2C(=O)N3C(C(=O)O)=C(CSc4nnc(-c5ccc(O)c(O)c5)s4)CS[C@H]23)cs1 [Ex. 32, 7β-[2-(2-aminothiazol-4-yl)-2-benzyloxviminoacetamido]-3-[5-(3,4-dihydroxvphenvl)-1,3,4-thiadiazol-2-yl]thiomethyl-3-cephem-4-carboxylic acid trifluoroacetate] | < 0.006 |  | > 100 | 0.78 |  | < 0.006 | 1.56 | 0.2 |  | 0.2 | 0.39 | 0.025 |  | 0.1 | 0.0125 | 0.78 | 0.0125 | < 0.006 |  | 0.39 | MIC (Ps. aeruginosa AK 109; [13]): 0.39 µg/mL; MIC (A. calcoaceticus No. 4; [11]): 0.39 µg/mL; MIC (E. cloacae 963; [14]): 0.1 µg/mL; MIC (S. aureus 209P NIHJ-JC1; [13]): 0.39 µg/mL; MIC (S. marcescens No. 16-2; [13]): 12.5 µg/mL
4 | CON=C(C(=O)NC1C(=O)N2C(C(=O)O)=C(CSc3nc(C(=O)O)c(-c4ccc(O)c(O)c4)s3)CSC12)c1csc(N)n1 (stereo not drawn) [Ex. 52] | 0.025 (≈ 0.0376 µM) |  | > 100 | 6.25 (≈ 9.4 µM) |  | 0.0125 (≈ 0.0188 µM) | 0.05 (≈ 0.0752 µM) | 0.1 (≈ 0.15 µM) |  | 0.78 (≈ 1.17 µM) | 0.39 (≈ 0.587 µM) | 0.1 (≈ 0.15 µM) |  | 0.1 (≈ 0.15 µM) | 0.1 (≈ 0.15 µM) |  |  | < 0.006 |  | 6.25 (≈ 9.4 µM) | MIC (Ps. aeruginosa AK 109; [13]): 12.5 µg/mL (≈ 18.8 µM); MIC (A. calcoaceticus No. 4; [11]): 0.39 µg/mL (≈ 0.587 µM); MIC (E. cloacae 963; [14]): 0.1 µg/mL (≈ 0.15 µM); MIC (S. aureus 209P NIHJ-JC1; [13]): 12.5 µg/mL (≈ 18.8 µM); MIC (E. coli GN5482; [13]): 3.12 µg/mL (≈ 4.69 µM); MIC (P. vulgaris HX-19): 0.0125 µg/mL (≈ 0.0188 µM); MIC (S. marcescens No. 16-2; [13]): 12.5 µg/mL (≈ 18.8 µM)
5 | CO/N=C(\C(=O)N[C@@H]1C(=O)N2C(C(=O)O)=C(CSc3nnc(-c4ccc(O)c(O)c4)s3)CS[C@H]12)c1csc(N)n1 [Ex. 25, sodium 7β-[2-(2-aminothiazol-4-yl)-2-methoxviminoacetamido]-3-[5-(3,4-dihydroxyphenyl)-1,3,4-thiadiazol-2-yl]thiomethyl-3-cephem-4-carboxylate] | < 0.006 | 0.78 | 100 | 0.78 | 0.2 | < 0.006 | 0.025 | 0.025 | 0.025 | 0.39 | 0.2 | 0.0125 | 0.78 | 0.025 | 0.0125 | 0.78 | < 0.006 | < 0.006 | 1.56 | 0.78 | 
6 | Nc1nc(C(=NOCC(=O)O)C(=O)NC2C(=O)N3C(C(=O)O)=C(CSc4nc(-c5ccc(O)c(O)c5)cs4)CSC23)cs1 (stereo not drawn) [Ex. 43, disodium 7β-[2-(2-aminothiazol-4-yl)-2-carboxylatemethoxyimincacetamido]-3-[4-(3,4-dihydroxyphenyl)thiazol-2-yl]thiomethvl-3-cephem-4-carboxylate] | < 0.006 | 0.78 |  | 0.78 | 0.2 | 0.025 | 0.025 | 0.05 |  | 0.2 | 0.2 | 0.05 |  | 0.05 | 0.1 |  | < 0.006 | < 0.006 | 1.56 | 0.39 | MIC (Ps. aeruginosa AKR17; AKR17, 16 h): 12.5 µg/mL; MIC (E. cloacae 963; [14]): 0.1 µg/mL; MIC (S. aureus 209P NIHJ-JC1; [13]): 12.5 µg/mL; MIC (E. coli GN5482; [13]): 0.39 µg/mL

From patent US5061794A, “Cephalosporin derivatives, and antibacterial agents” (priority 1986, dated 1991)
